Results reported in the supplement of paper PMC10733146.

What was measured:
Test in all cases: viability relative to DMSO control (fraction); higher = less drug effect (more viable cells)
Conditions in all cases: 48 h
[1] = tested on: primary AML patient cells (S006)
Procedure, shortened: (§1)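 Cells were incubated for 48 h at 37 °C and 5% CO2 in RPMI-1640 with penicillin/streptomycin, L-glutamine and human serum, at 4 × 10^4 cells per well in 384-well plates with compounds pre-plated at five concentrations, one well each. These were primary mononuclear tumour cells, fresh or cryopreserved, Ficoll-isolated from blood or bone marrow or obtained from processed lymph node. Viability values are CellTiter-Glo luminescence relative to the median of 16 inner DMSO wells.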

[2] = tested on: primary AML patient cells (S011)
Procedure, shortened: as §1

[3] = tested on: primary AML patient cells (S012)
Procedure, shortened: as §1

[4] = tested on: primary AML patient cells (S037)
Procedure, shortened: as §1

[5] = tested on: primary AML patient cells (S056)
Procedure, shortened: as §1

[6] = tested on: primary AML patient cells (S081)
Procedure, shortened: as §1

[7] = tested on: primary AML patient cells (S085)
Procedure, shortened: as §1

[8] = tested on: primary BL patient cells (S005)
Procedure, shortened: as §1

[9] = tested on: primary CLL patient cells (S031)
Procedure, shortened: as §1

[10] = tested on: primary CLL patient cells (S043)
Procedure, shortened: as §1

[11] = tested on: primary MCL patient cells (S041)
Procedure, shortened: as §1

[12] = tested on: primary MCL patient cells (S063)
Procedure, shortened: as §1

[13] = tested on: primary MCL patient cells (S068)
Procedure, shortened: as §1

[14] = tested on: primary T-PLL patient cells (S008)
Procedure, shortened: as §1

**Q.** How did the viability ([1]; 0.008 µM) turn out when O=C1c2c(O)ccc(O)c2C(=O)c2c(NCCNCCO)ccc(NCCNCCO)c21 [Mitoxantrone] was run?
**A.** The viability was 0.426.

**Q.** And the viability ([1]; 0.04 µM)?
**A.** Its viability is 0.155.

**Q.** And the viability ([1]; 0.2 µM)?
**A.** Its viability is 0.0754.

**Q.** And the viability ([1]; 1 µM)?
**A.** Its viability is 0.0534.

**Q.** And the viability ([1]; 5 µM)?
**A.** Its viability is 0.0375.

**Q.** What about the viability ([2]; 0.008 µM) of the same compound?
**A.** Its viability is 0.818.

**Q.** And the viability ([2]; 0.04 µM)?
**A.** Its viability is 0.384.

**Q.** And the viability ([2]; 0.2 µM)?
**A.** The viability was 0.203.

**Q.** And the viability ([2]; 1 µM)?
**A.** Its viability is 0.041.

**Q.** What about the viability ([2]; 5 µM) of the same compound?
**A.** Its viability is 0.0174.

**Q.** What about the viability ([3]; 0.008 µM) of the same compound?
**A.** Its viability is 0.991.

**Q.** And the viability ([3]; 0.04 µM)?
**A.** The viability was 0.995.

**Q.** What about the viability ([3]; 0.2 µM) of the same compound?
**A.** Its viability is 0.978.

**Q.** And the viability ([3]; 1 µM)?
**A.** The viability was 0.862.

**Q.** And the viability ([3]; 5 µM)?
**A.** The viability was 0.0416.

**Q.** What about the viability ([4]; 0.008 µM) of the same compound?
**A.** The viability was 0.843.

**Q.** What about the viability ([4]; 0.04 µM) of the same compound?
**A.** Its viability is 0.581.

**Q.** What about the viability ([4]; 0.2 µM) of the same compound?
**A.** Its viability is 0.447.

**Q.** What about the viability ([4]; 1 µM) of the same compound?
**A.** The viability was 0.345.

**Q.** What about the viability ([4]; 5 µM) of the same compound?
**A.** The viability was 0.211.

**Q.** What about the viability ([5]; 0.008 µM) of the same compound?
**A.** The viability was 0.397.

**Q.** What about the viability ([5]; 0.04 µM) of the same compound?
**A.** The viability was 0.17.

**Q.** What about the viability ([5]; 0.2 µM) of the same compound?
**A.** The viability was 0.128.

**Q.** What about the viability ([5]; 1 µM) of the same compound?
**A.** The viability was 0.0823.

**Q.** What about the viability ([5]; 5 µM) of the same compound?
**A.** The viability was 0.0488.

**Q.** What about the viability ([6]; 0.008 µM) of the same compound?
**A.** The viability was 0.995.

**Q.** What about the viability ([6]; 0.04 µM) of the same compound?
**A.** The viability was 1.01.

**Q.** What about the viability ([6]; 0.2 µM) of the same compound?
**A.** The viability was 1.09.

**Q.** What about the viability ([6]; 1 µM) of the same compound?
**A.** Its viability is 0.167.

**Q.** What about the viability ([6]; 5 µM) of the same compound?
**A.** The viability was 0.0158.

**Q.** What about the viability ([7]; 0.008 µM) of the same compound?
**A.** Its viability is 0.538.

**Q.** What about the viability ([7]; 0.04 µM) of the same compound?
**A.** Its viability is 0.295.

**Q.** And the viability ([7]; 0.2 µM)?
**A.** The viability was 0.277.

**Q.** What about the viability ([7]; 1 µM) of the same compound?
**A.** Its viability is 0.065.

**Q.** And the viability ([7]; 5 µM)?
**A.** The viability was 0.0217.

**Q.** What about the viability ([8]; 0.008 µM) of the same compound?
**A.** Its viability is 0.963.

**Q.** And the viability ([8]; 0.04 µM)?
**A.** The viability was 1.55.

**Q.** And the viability ([8]; 0.2 µM)?
**A.** The viability was 0.853.

**Q.** What about the viability ([8]; 1 µM) of the same compound?
**A.** Its viability is 0.649.

**Q.** What about the viability ([8]; 5 µM) of the same compound?
**A.** Its viability is 0.742.

**Q.** And the viability ([9]; 0.008 µM)?
**A.** Its viability is 0.614.

**Q.** And the viability ([9]; 0.04 µM)?
**A.** Its viability is 0.383.

**Q.** And the viability ([9]; 0.2 µM)?
**A.** Its viability is 0.335.

**Q.** And the viability ([9]; 1 µM)?
**A.** The viability was 0.0955.

**Q.** And the viability ([9]; 5 µM)?
**A.** The viability was 0.0133.

**Q.** And the viability ([10]; 0.008 µM)?
**A.** The viability was 0.739.

**Q.** What about the viability ([10]; 0.04 µM) of the same compound?
**A.** Its viability is 0.849.

**Q.** What about the viability ([10]; 0.2 µM) of the same compound?
**A.** The viability was 0.488.

**Q.** What about the viability ([10]; 1 µM) of the same compound?
**A.** Its viability is 0.0542.

**Q.** And the viability ([10]; 5 µM)?
**A.** The viability was 0.0236.

**Q.** And the viability ([11]; 0.008 µM)?
**A.** The viability was 0.985.

**Q.** What about the viability ([11]; 0.04 µM) of the same compound?
**A.** Its viability is 0.862.

**Q.** What about the viability ([11]; 0.2 µM) of the same compound?
**A.** Its viability is 0.569.

**Q.** And the viability ([11]; 1 µM)?
**A.** The viability was 0.0728.

**Q.** What about the viability ([11]; 5 µM) of the same compound?
**A.** The viability was 0.015.

**Q.** And the viability ([12]; 0.008 µM)?
**A.** Its viability is 1.02.

**Q.** What about the viability ([12]; 0.04 µM) of the same compound?
**A.** Its viability is 0.812.

**Q.** And the viability ([12]; 0.2 µM)?
**A.** Its viability is 0.598.

**Q.** And the viability ([12]; 1 µM)?
**A.** Its viability is 0.246.

**Q.** And the viability ([12]; 5 µM)?
**A.** Its viability is 0.0145.

**Q.** What about the viability ([13]; 0.008 µM) of the same compound?
**A.** Its viability is 0.814.

**Q.** And the viability ([13]; 0.04 µM)?
**A.** The viability was 0.596.

**Q.** And the viability ([13]; 0.2 µM)?
**A.** Its viability is 0.434.

**Q.** What about the viability ([13]; 1 µM) of the same compound?
**A.** Its viability is 0.0583.

**Q.** And the viability ([13]; 5 µM)?
**A.** Its viability is 0.0225.

**Q.** What about the viability ([14]; 0.008 µM) of the same compound?
**A.** Its viability is 1.02.

**Q.** And the viability ([14]; 0.04 µM)?
**A.** Its viability is 0.961.

**Q.** What about the viability ([14]; 0.2 µM) of the same compound?
**A.** The viability was 0.502.

**Q.** And the viability ([14]; 1 µM)?
**A.** The viability was 0.0553.

**Q.** And the viability ([14]; 5 µM)?
**A.** Its viability is 0.0424.
